Reference: patent US20050071891A1, “Repressible sterility of animals” (priority 1999, published 2005)
Where “and” joins values, the source holds several entries; their conditions need not be identical. Equal entries are not always repeated.

Legend:
[1] = tested on: ZF4 cells; assay: Tet-off system in zebrafish cell culture, EGFP reporter; type: cell-based; settings: doxycycline 0.2 μg/ml, 72 h, pTet-Off + pTRE-EGFP cells
Excerpt: The applicant first tested the functionality of the Tet-off system in zebrafish cell cultures. The cell culture was established using ZF4 cells as previously described (Driever and Rangini, 1993). Cells were transfected with the DNAs using Effectene liposomes (Qiagen) according to the manufacturer's instructions. Cells were initially transfected with pTet-Off and placed under neomycin selection for 1 month. Neomycin-resistant cells were then transfected with pTRE-EGFP, and the selection plasmid pTK-Hyg, and placed under hygromycin selection for two weeks. EGFP expression was determined by examining and counting cells with obvious fluorescence and by examination of cell lysates using a fluorometer. Cells were grown in medium with or without doxycycline (0.2 μg/ml) for 72 h prior to assessment of gene expression, or were rinsed of doxycycline and assessed for reporter gene expression 72 h after removal of doxycycline.

[2] = tested on: P19-pSFM 7 cells; assay: Luciferase activity of pSFM 25 in P19 clones stably integrated with pSFM 7; type: cell-based, mouse; settings: doxycycline at 1 μg/ml, clone 46
Procedure: Stably integrated P19 clones were obtained by using BioRad Gene Pulser II electroporation system. 30 μg DNA electroporated into 10 million cells under following conditions 960 μF and 0.16 kV in a 0.4 cm cuvette (0.4 kV/cm). The next day normal media were replaced with appropriate selection media (300 μg/ml G418).
Selection of a P19 cell line stably integrated with a goosecoid-dependent TET-OFF transactivator P19 cells were electroporated with pSFM 7 (Goosecoid promoter-TET/OFF) linearised with ApaLI and selected for stable integration.
Table 20 showes the luciferase activities of pSFM 25 (TRE luciferase+) shown in counts per second (cps) of transiently transfected in P19-pSFM 7 cells.
Addition of doxycycline at 1 μg/ml reduced luciferase activity from pSFM 25 in this clone by 90 fold. This clone, containing stably integrated pSFM 7 was therefore designated P19-pSFM 7 and used for further testing.

[3] = tested on: P19-pSFM 7 cells; assay: Expression patterns of reporter constructs in P19-pSFM 7 cells; type: cell-based, mouse; settings: transfected into P19-pSFM 7 cells
Procedure: Fluorescent and transmitted light images were acquired using a CCD camera with a microscope. […] The luminescence assays were conducted by using a dark 96 well plate was done by Victor2 from Wallac or by Topcount NXT from Can berra Packard.
The first stage for testing blocker constructs is to set up an appropriate cell system to detect expression of reporter constructs. Initially, either pdsRED-N1 (CMV promoter RFP), pSFM 6 (CMV promoter goosecoid cDNA fused to RFP) or pSFM 24 (TRE EGFP) were transfected into P19-pSFM 7 cells to test the expression patterns of the EGFP, RFP and goosecoid-fused to RFP proteins (FIG. 37). […] In these cases, RFP expression fused to goosecid in the nucleus is expected to be inhibited in the presence of an appropriate blocker.

[4] = tested on: zBMP2; assay: Injection of zBMP2 antisense and double stranded DNA constructs into zebrafish embryos; type: in vivo; settings: 100 μg/ml, 1-4 cell stage embryos
Procedure: All the DNA preparations were appropriately linearized and gel purified (Qiaquick Gel Extraction Kit) before injection. Needles were made from borosilicate glass capillaries with filaments (GC100TF-15, Clark Electromedical instruments) using a P-80PC micropipette puller (Sutter Instrument Co.). The needle was back-filled with purified DNA diluted to 100 ng/μl in 1× injection buffer (10×; 50 mM Tris; 5 mM EDTA; 1M KCl, pH7.2) using a hand pulled pipette. Injections were carried out on a dissection microscope fitted with two, 3-dimensional Narshige MN-151 micromanipulators. Embryos were held in place during injection by a hydraulically (mineral oil) driven holding pipette. Injection of DNA solution was facilitated pneumatically using a 3-way foot operated plunge valve (Festo Engineering), connected between the injection needle holder and nitrogen tank. Injection was performed on one-cell stage embryos, unless specifically indicated otherwise. Injected embryos were incubated and reared as described above.
On confirming the ability of in vitro transcribed BMP2 antisense and double stranded transcripts to disrupt larval development, DNA constructs capable of expressing the antisense and double stranded transcripts in vivo were developed and tested. […]

## C[C@H]1c2cccc(O)c2C(=O)C2=C(O)[C@]3(O)C(=O)C(C(N)=O)=C(O)[C@@H](N(C)C)[C@@H]3[C@@H](O)[C@@H]21 [doxycycline, reference compound]
[1]
  EGFP gene expression relative to cells not exposed to doxycycline: approximately 3%
[2]
  reduction of luciferase activity from pSFM 25: 90 fold

## pSFM 6: goosecoid cDNA fused to red fluorescent protein in pDSRed1-N1
[3]
  cellular location of reporter expression: detected in the nucleus

B1: pzBMP2-ds: zBMP2 promoter drives about 800 bp of zBMP2 cDNA designed to fold back as dsRNA (SEQ ID NO:13) (nucleic acid)
DNA: GAATTCATGAGGAACTTAGGAGACGACGGGAACGCAGACCGGCCACAGCGCTTCCTCCTCCGGAACTGACTGATCATGGTCGCCGTGGTCCGCGCTCTCACGGTGCTGTTGCTCGGTCAGGTGTTGCTGGGAGGTGCCGTTGGACTCATTCCCGAGATCGACCGACGGAAATACAGTGATTCGGGGAGACACACACCGGAGCGAACTGATACAAACTTCCTGAACGAGTTTGAGCTACGCTTGCTCAATATGTTCGGATTGAAGCGAAAACCCACCCCAAGCAAATCGGCAGTGGTCCCTCAGTACATGCTGGACTTGTATTATATGCACTCTGAAAACGATGACCCGAACATTCGGCGCCCGAGGAGCACTATGGGAAAACATGTAGAAAGGGCAGCCAGCAGAGCAAACACGATACGAAGTTTTCATCACGAAGAGGCTTTCGAGGCACTGTCCAGCCTGAAAGGAAAAACAACGCAGCAGTTTTTCTTCAACCTTACCTCCATTCCTGTCGACTGCCGATTTGCTTGGGGTGGGTTTTCGCTTCAATCCGAACATATTGAGCAAGCGTAGCTCAAACTCGTTCAGGAAGTTTGTATCAGTTCGCTCCGGTGTGTGTCTCCCCGAATCACTGTATTTCCGTCGGTCGATCTCGGGAATGAGTCCAACGGCACCTCCCAGCAACACCTGACCGAGCAACAGCACCGTGAGAGCGCGGACCACGGCGACCATGATCAGTCAGTTCCGGAGGAGGAAGCGCTGTGGCCGGTCTGCGTTCCCGTCGTCTCCTAAGTTCCTCATCTGCAGCAATTGGATATCAAGCTTATCGATGATGATCCAGACATGATAAGATACATTGATGAGTTTGGACAAACCNCANCTAGAATGCAGTGAAAAAAATGCTTTATTTGTGAAATTTGTGATGCTATTGCTTTATTTGTAACCATTATAAGCTGCAATAAACAAGTTAACNACAACAATTGCATTCATTTTATGTTTCAGGTTCAGNGGGAGGTGTGGGAGGTTTTTTAAAGCAAGTAAAACCTCTNCAAATGTGGTATGGCTGATTATGATCCTCTAGATCAGATCCACTAGTTCTAGAGCGGCCGCCACCGCGGTGGAGCTC
modifications: Blocker Molecule
[4]
  Number Deformed: 21 and 22
  mortality, percentage: 14.3% and 16.5%
